The source made the active and inactive calls. The calls are words filed in the database; no cut-off is given here.
Columns and labels:
[1] = Cytotoxicity against C57BL/6 mouse Pre-Osteoblast cells assessed as cell death upto 5 uM incubated for 4 days by CCK-8 assay; type: toxicity, cell-based; conditions: 96 h, time 4 day
Pre-Osteoblast [2] = assay: Induction of osteoblast differentiation in C57BL/6 mouse Pre-Osteoblast cells assessed as increase in ALP expression by measuring increase in ALP-positive cells with purple color at 50 nM measured after 2 days by ALP staining based analysis; type: functional, cell-based; conditions: time 2.0 day
Pre-Osteoblast [3] = assay: Induction of osteoblast differentiation in C57BL/6 mouse Pre-Osteoblast cells assessed as increase in bone mineralization by measuring increase in red calcium nodules measured after 14 days by Alizarin Red S staining based analysis; type: functional, cell-based; conditions: time 14.0 day
Pre-Osteoblast [4] = assay: Induction of osteoblast differentiation in C57BL/6 mouse Pre-Osteoblast cells assessed as increase in bone mineralization by measuring increase in area of calcium nodules measured after 14 days by Alizarin Red S staining based analysis; type: functional, cell-based; conditions: time 14.0 day
Pre-Osteoblast [5] = assay: Induction of osteoblast differentiation in C57BL/6 mouse Pre-Osteoblast cells assessed as upregulation of ALP gene expression measured on day 4 and 7 by qPCR analysis; type: functional, cell-based; conditions: time 4-7 day
Pre-Osteoblast [6] = assay: Induction of osteoblast differentiation in C57BL/6 mouse Pre-Osteoblast cells assessed as upregulation of OCN gene expression measured on day 4 and 7 by qPCR analysis; type: functional, cell-based; conditions: time 4-7 day
Pre-Osteoblast [7] = assay: Induction of osteoblast differentiation in C57BL/6 mouse Pre-Osteoblast cells assessed as upregulation of Runx2 gene expression measured on day 4 and 7 by qPCR analysis; type: functional, cell-based; conditions: time 4-7 day
Mus musculus [8] = assay: Anti-osteoporosis activity in ovariectomized C57BL/6J mouse model assessed as increase in bone volume percent in femur at 20 microg/kg, sc administered 3 times a week for 8 weeks by micro-CT analysis; type: functional, organism-based; conditions: dose 20.0 µg/kg
Mus musculus [9] = assay: Anti-osteoporosis activity in ovariectomized C57BL/6J mouse model assessed as increase in bone surface density in femur at 20 microg/kg, sc administered 3 times a week for 8 weeks by micro-CT analysis; type: functional, organism-based; conditions: dose 20.0 µg/kg
Mus musculus [10] = assay: Anti-osteoporosis activity in ovariectomized C57BL/6J mouse model assessed as increase in trabecular number in femur at 20 microg/kg, sc administered 3 times a week for 8 weeks by micro-CT analysis; type: functional, organism-based; conditions: dose 20.0 µg/kg
[11] = Stability in human serum assessed as compound remaining at 1 mg/ml measured after 12 hrs by HPLC analysis; type: ADME, cell-free; conditions: read-out: Stability
[12] = Induction of osteoblast differentiation in C57BL/6 mouse Pre-Osteoblast cells assessed as fold increase in ephrinB2 protein expression at 50 nM measured after 72 hrs by Western blot analysis relative to control; type: functional
[13] = Induction of osteoblast differentiation in C57BL/6 mouse Pre-Osteoblast cells assessed as fold increase in ephrinB2 protein expression at 100 nM measured after 72 hrs by Western blot analysis relative to control; type: functional
[14] = Induction of osteoblast differentiation in C57BL/6 mouse Pre-Osteoblast cells assessed as fold increase in ephrinB2 protein expression at 200 nM measured after 72 hrs by Western blot analysis relative to control; type: functional
[15] = Stability in human serum assessed as compound degradation at 1 mg/ml measured after 12 hrs by HPLC analysis; type: ADME, cell-free; conditions: read-out: Drug degradation

| Structure (SMILES) | Activity [1] | Activity (Pre-Osteoblast [2]) | Activity (Pre-Osteoblast [3]) | Activity (Pre-Osteoblast [4]) | Activity (Pre-Osteoblast [5]) | Activity (Pre-Osteoblast [6]) | Activity (Pre-Osteoblast [7]) | Activity (Mus musculus [8]) | Activity (Mus musculus [9]) | Activity (Mus musculus [10]) | remaining at 12 h, 1 mg/ml [11] | fold change (FC) [12] | fold change (FC) [13] | fold change (FC) [14] | metabolised at 12 h, 1 mg/ml [15] |
| --- | --- | --- | --- | --- | --- | --- | --- | --- | --- | --- | --- | --- | --- | --- | --- |
| CC[C@H](C)[C@H](NC(=O)[C@H](CCC(=O)O)NC(=O)[C@H](CO)NC(=O)[C@@H](NC(=O)[C@H](CO)NC(C)=O)C(C)C)C(=O)N[C@@H](CCC(N)=O)C(=O)N[C@@H](CC(C)C)C(=O)N[C@@H](CCSC)C(=O)N[C@@H](Cc1cnc[nH]1)C(=O)N[C@@H](CC(N)=O)C(=O)N[C@@H](CC(C)C)C(=O)NCC(=O)N[C@@H](CCCCN)C(=O)N[C@@H](Cc1cnc[nH]1)C(=O)N[C@@H](CC(C)C)C(=O)N[C@@H](CC(N)=O)C(=O)N[C@@H](CO)C(=O)N[C@@H](CCSC)C(=O)N[C@@H](CCC(=O)O)C(=O)N[C@@H](CCCNC(=N)N)C(=O)N[C@H](C(=O)N[C@@H](CCC(=O)O)C(=O)N[C@@H](Cc1c[nH]c2ccccc12)C(=O)N[C@@H](CC(C)C)C(=O)N[C@@H](CCCNC(=N)N[C@@H]1O[C@H](CO)[C@@H](O[C@H]2O[C@H](CO)[C@@H](O)[C@H](O)[C@H]2O)[C@H](O)[C@H]1O)C(=O)N[C@@H](CCCCN)C(=O)N[C@@H](CCCCN)C(=O)N[C@@H](CC(C)C)C(=O)N[C@@H](CCC(N)=O)C(=O)N[C@@H](CC(=O)O)C(=O)N[C@H](C(=O)N[C@@H](Cc1cnc[nH]1)C(=O)N[C@@H](CC(N)=O)C(=O)N[C@@H](Cc1ccccc1)C(N)=O)C(C)C)C(C)C | Non-Toxic | Active | Active | Active | Active | Active | Active | Active | Active | Active | > 75% | 1.16 | 1.34 | 1.32 | – |
| CC[C@H](C)[C@H](NC(=O)[C@H](CCC(=O)O)NC(=O)[C@H](CO)NC(=O)[C@@H](NC(=O)[C@H](CO)NC(C)=O)C(C)C)C(=O)N[C@@H](CCC(N)=O)C(=O)N[C@@H](CC(C)C)C(=O)N[C@@H](CCSC)C(=O)N[C@@H](Cc1cnc[nH]1)C(=O)N[C@@H](CC(N)=O)C(=O)N[C@@H](CC(C)C)C(=O)NCC(=O)N[C@@H](CCCCN)C(=O)N[C@@H](Cc1cnc[nH]1)C(=O)N[C@@H](CC(C)C)C(=O)N[C@@H](CC(N)=O)C(=O)N[C@@H](CO)C(=O)N[C@@H](CCSC)C(=O)N[C@@H](CCC(=O)O)C(=O)N[C@@H](CCCNC(=N)N)C(=O)N[C@H](C(=O)N[C@@H](CCC(=O)O)C(=O)N[C@@H](Cc1c[nH]c2ccccc12)C(=O)N[C@@H](CC(C)C)C(=O)N[C@@H](CCCNC(=N)N)C(=O)N[C@@H](CCCCN)C(=O)N[C@@H](CCCCN)C(=O)N[C@@H](CC(C)C)C(=O)N[C@@H](CCC(N)=O)C(=O)N[C@@H](CC(=O)O)C(=O)N[C@H](C(=O)N[C@@H](Cc1cnc[nH]1)C(=O)N[C@@H](CC(N)=O)C(=O)N[C@@H](Cc1ccccc1)C(N)=O)C(C)C)C(C)C | Non-Toxic | – | – | – | – | – | – | – | – | – | – | 1.04 | 1.05 | 1.23 | > 50% |

— ChEMBL document CHEMBL5537170, “Design, Synthesis, and Anti-Osteoporotic Characterization of Arginine N-Glycosylated Teriparatide Analogs via the Silver-catalyzed Solid-Phase Glycosylation Strategy” (J Med Chem, 2024)
